According to ChEMBL document CHEMBL1201862, “PubChem BioAssay data set” (2004):
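96-well plates; 48 h exposure; 5 concentrations. Endpoints by linear interpolation between flanking doses. Not reached: highest tested concentration assigned. At the GI50, growth is halved.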 Activity calls are given as the source filed them. Cut-off read from the data, not from the text of the source: active = GI50 up to about 1.1 µM and inactive = higher.

Assays:
Test in all cases: growth of human tumour cells (NCI), 48 h
A549 = test system: A549
CCRF-CEM = test system: CCRF-CEM
DU-145 = test system: DU-145
HCT-15 = test system: HCT-15
HL-60 = test system: HL-60
HOP-92 = test system: HOP-92
HT-29 = test system: HT-29
LOX IMVI = test system: LOX IMVI
MDA-MB-435 = test system: MDA-MB-435
MOLT-4 = test system: MOLT-4
NCI-H460 = test system: NCI-H460
OVCAR-5 = test system: OVCAR-5
RXF 393 = test system: RXF 393
SF-295 = test system: SF-295
SK-MEL-2 = test system: SK-MEL-2
SN12C = test system: SN12C
T47D = test system: T47D
TK-10 = test system: TK-10
UACC-62 = test system: UACC-62
EKVX = test system: EKVX

Compound | GI50 (A549) | GI50 (CCRF-CEM) | GI50 (DU-145) | GI50 (HCT-15) | GI50 (HL-60) | GI50 (HOP-92) | GI50 (HT-29) | GI50 (LOX IMVI) | GI50 (MDA-MB-435) | GI50 (MOLT-4) | GI50 (NCI-H460) | GI50 (OVCAR-5) | GI50 (RXF 393) | GI50 (SF-295) | GI50 (SK-MEL-2) | GI50 (SN12C) | GI50 (T47D) | GI50 (TK-10) | GI50 (UACC-62) | GI50 (EKVX)
COc1ccc(-c2c3c(n(C4OC(CO)C(O)C(O)C4O)c(=S)c2C#N)CCC3)cc1 (stereo not given) | 68.9 µM (inactive) | 32.6 µM (inactive) | 66.7 µM (inactive) | 85.7 µM | 34.7 µM (inactive) | 28.6 µM (inactive) | 40.1 µM (inactive) | 42.1 µM (inactive) | 33.3 µM (inactive) | 28.8 µM (inactive) | 45.2 µM (inactive) | 74.6 µM (inactive) | 22.4 µM (inactive) | 31.9 µM (inactive) | 58.5 µM (inactive) | 37 µM (inactive) | 44.9 µM (inactive) | > 100 µM (inactive) | 42 µM (inactive) | 
OCCCCn1cc(Cn2ncc3c(O)ncnc32)nn1 | > 100 µM (inactive) | > 100 µM (inactive) | > 100 µM (inactive) | > 100 µM |  | > 100 µM (inactive) | > 100 µM (inactive) | > 100 µM (inactive) | > 100 µM (inactive) | > 100 µM (inactive) | > 100 µM (inactive) | > 100 µM (inactive) | > 100 µM (inactive) | > 100 µM (inactive) | > 100 µM (inactive) | > 100 µM (inactive) | > 100 µM (inactive) | > 100 µM (inactive) | > 100 µM (inactive) | > 100 µM (inactive)
CC(C)(C)NCC(O)c1ccc(O)c(CO)n1 (stereo not given) | > 100 µM (inactive) |  | > 100 µM (inactive) | > 100 µM | > 100 µM (inactive) | > 100 µM (inactive) | > 100 µM (inactive) | > 100 µM (inactive) | > 100 µM (inactive) | > 100 µM (inactive) | > 100 µM (inactive) | > 100 µM (inactive) | > 100 µM (inactive) | > 100 µM (inactive) | > 100 µM (inactive) | > 100 µM (inactive) | > 100 µM (inactive) | > 100 µM (inactive) | > 100 µM (inactive) | > 100 µM (inactive)
O=c1c2ccc(Cl)cc2oc2c(CSc3ccccc3)cccc12 | > 32.4 µM (inactive) | 10.1 µM (inactive) | 70.5 µM (inactive) | 28.4 µM |  | > 39.4 µM (inactive) | 95.9 µM (inactive) | 9.57 µM (inactive) | > 21.9 µM (inactive) | 15.8 µM (inactive) | 23.8 µM (inactive) | > 62.8 µM (inactive) | > 100 µM (inactive) | > 43.9 µM (inactive) | > 49.1 µM (inactive) | 43.6 µM (inactive) | 61.7 µM (inactive) | > 55.3 µM (inactive) | > 41.4 µM (inactive) | > 50.4 µM (inactive)
CC(N/N=C(\S)N1CCN(c2ccccn2)CC1)c1cccc[n+]1[O-] (stereo not given) | 8.65 µM (inactive) | 1.98 µM (inactive) | 57.1 µM (inactive) | 3.28 µM | 3.13 µM (inactive) | 20.5 µM (inactive) | 0.661 µM (active) | 8.17 µM (inactive) | 25.3 µM (inactive) | 2.58 µM (inactive) | 5.31 µM (inactive) |  | 16.2 µM (inactive) | 12.3 µM (inactive) |  | 23.6 µM (inactive) | 77.1 µM (inactive) | 32 µM (inactive) | 2.95 µM (inactive) | 6.47 µM (inactive)
CCCCSc1n/c(=C\c2ccc(N(C)C)cc2)c2nnnn12 | > 100 µM (inactive) |  | > 100 µM (inactive) | > 100 µM | > 100 µM (inactive) | > 100 µM (inactive) | > 100 µM (inactive) | > 100 µM (inactive) | > 100 µM (inactive) | > 100 µM (inactive) | > 100 µM (inactive) | > 100 µM (inactive) | > 100 µM (inactive) | > 100 µM (inactive) | > 100 µM (inactive) | > 100 µM (inactive) | > 100 µM (inactive) | > 100 µM (inactive) | > 100 µM (inactive) | > 100 µM (inactive)
CN(C)C1(N(C)C)Oc2c(c(=O)n(C)c(=O)n2C)C(c2ccccc2)C1(F)F (stereo not given) | > 100 µM (inactive) | > 100 µM (inactive) | > 100 µM (inactive) | > 100 µM |  | > 100 µM (inactive) |  | > 100 µM (inactive) | > 100 µM (inactive) | > 100 µM (inactive) | > 100 µM (inactive) | > 100 µM (inactive) | > 100 µM (inactive) | > 100 µM (inactive) | > 100 µM (inactive) |  | > 100 µM (inactive) | > 100 µM (inactive) | > 100 µM (inactive) | > 100 µM (inactive)
